# Measured values reported in PubChem BioAssay (NCI).
# “And” between values parts separate entries of the source, which are not always exact repeats. Equal entries are not always repeated.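 Cells were grown in 96-well plates and exposed to each compound for 48 hours at five concentrations; endpoints were interpolated linearly between bracketing concentrations, or set to the highest concentration if not reached. Here, GI50 denotes the concentration required for 50% inhibition of growth. TGI denotes the concentration required for complete inhibition of growth.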
# Tests used:
# Assay in all cases: NCI tumour cell line growth inhibition, 48 h
# A498 renal = test system: A498 renal
# A549 NSCLC = test system: A549 NSCLC
# CAKI-1 renal = test system: CAKI-1 renal
# CCRF-CEM leukemia = test system: CCRF-CEM leukemia
# COLO 205 colon = test system: COLO 205 colon
# DLD-1 colon = test system: DLD-1 colon
# DMS 273 small cell lung = test system: DMS 273 small cell lung
# EKVX NSCLC = test system: EKVX NSCLC
# HCC-2998 colon = test system: HCC-2998 colon
# HCT-116 colon = test system: HCT-116 colon
# HCT-15 colon = test system: HCT-15 colon
# HL-60(TB) leukemia = test system: HL-60(TB) leukemia
# HOP-18 NSCLC = test system: HOP-18 NSCLC
# HOP-62 NSCLC = test system: HOP-62 NSCLC
# HOP-92 NSCLC = test system: HOP-92 NSCLC
# HT29 colon = test system: HT29 colon
# IGROV1 ovarian = test system: IGROV1 ovarian
# K-562 leukemia = test system: K-562 leukemia
# KM12 colon = test system: KM12 colon
# KM20L2 colon = test system: KM20L2 colon
# LOX IMVI melanoma = test system: LOX IMVI melanoma
# M19-MEL melanoma = test system: M19-MEL melanoma
# MALME-3M melanoma = test system: MALME-3M melanoma
# MCF7 breast = test system: MCF7 breast
# MOLT-4 leukemia = test system: MOLT-4 leukemia
# NCI-H226 lung = test system: NCI-H226 lung
# NCI-H23 lung = test system: NCI-H23 lung
# NCI-H460 lung = test system: NCI-H460 lung
# NCI-H522 lung = test system: NCI-H522 lung
# NCI/ADR-RES ovarian = test system: NCI/ADR-RES ovarian
# OVCAR-3 ovarian = test system: OVCAR-3 ovarian
# OVCAR-4 ovarian = test system: OVCAR-4 ovarian
# OVCAR-5 ovarian = test system: OVCAR-5 ovarian
# OVCAR-8 ovarian = test system: OVCAR-8 ovarian
# P388 leukemia = test system: P388 leukemia
# P388/ADR leukemia = test system: P388/ADR leukemia
# RPMI-8226 leukemia = test system: RPMI-8226 leukemia
# RXF 393 renal = test system: RXF 393 renal
# SF-268 CNS = test system: SF-268 CNS
# SF-295 CNS = test system: SF-295 CNS
# SF-539 CNS = test system: SF-539 CNS
# SK-MEL-2 melanoma = test system: SK-MEL-2 melanoma
# SK-MEL-28 melanoma = test system: SK-MEL-28 melanoma
# SK-MEL-5 melanoma = test system: SK-MEL-5 melanoma
# SK-OV-3 ovarian = test system: SK-OV-3 ovarian
# SN12C renal = test system: SN12C renal
# SN12K1 renal = test system: SN12K1 renal
# SNB-19 CNS = test system: SNB-19 CNS
# SNB-75 CNS = test system: SNB-75 CNS
# SW-620 colon = test system: SW-620 colon
# U251 CNS = test system: U251 CNS
# UACC-257 melanoma = test system: UACC-257 melanoma
# UACC-62 melanoma = test system: UACC-62 melanoma
# UO-31 renal = test system: UO-31 renal
# XF 498 CNS = test system: XF 498 CNS
# 786-0 renal = test system: 786-0 renal
# ACHN renal = test system: ACHN renal
# DMS 114 small cell lung = test system: DMS 114 small cell lung
# LXFL 529 NSCLC = test system: LXFL 529 NSCLC
# M14 melanoma = test system: M14 melanoma
# RXF-631 renal = test system: RXF-631 renal
# SNB-78 CNS = test system: SNB-78 CNS
# SR leukemia = test system: SR leukemia
# TK-10 renal = test system: TK-10 renal
structure (smiles),measurement,setting,value
C=C1C(=O)[C@@]23CC[C@H]4[C@@](C)(CCC[C@@]4(C)C(=O)OC)[C@@H]2CC[C@]1(O)C3,GI50,A498 renal,1.49 µM
same,TGI,A498 renal,3.09 µM
same,TGI,A549 NSCLC,10.4 µM and 10.6 µM
same,TGI,CAKI-1 renal,2.96 µM
same,TGI,CCRF-CEM leukemia,> 100 µM
same,TGI,COLO 205 colon,3.83 µM and 3.18 µM
same,TGI,DLD-1 colon,1.33 µM
same,GI50,DMS 273 small cell lung,1.32 µM
same,TGI,DMS 273 small cell lung,2.66 µM and 3.08 µM
same,TGI,EKVX NSCLC,3.5 µM
same,TGI,HCC-2998 colon,8.55 µM
same,TGI,HCT-116 colon,2.21 µM and 2.17 µM
same,TGI,HCT-15 colon,2.85 µM and 2.71 µM
same,GI50,HL-60(TB) leukemia,0.27 µM
same,TGI,HL-60(TB) leukemia,1.35 µM and 0.967 µM
same,TGI,HOP-18 NSCLC,3.62 µM and 3.51 µM
same,TGI,HOP-62 NSCLC,34.7 µM
same,GI50,HOP-92 NSCLC,1.48 µM
same,TGI,HOP-92 NSCLC,2.88 µM and 3.21 µM
same,GI50,HT29 colon,0.911 µM
same,TGI,HT29 colon,3.14 µM and 2.71 µM
same,TGI,IGROV1 ovarian,3.07 µM and 3 µM
same,GI50,K-562 leukemia,0.463 µM
same,GI50,KM12 colon,1.97 µM
same,TGI,KM12 colon,3.6 µM and 5.81 µM
same,GI50,KM20L2 colon,1.91 µM
same,TGI,KM20L2 colon,3.83 µM
same,GI50,LOX IMVI melanoma,1.34 µM
same,TGI,LOX IMVI melanoma,2.64 µM and 2.22 µM
same,GI50,M19-MEL melanoma,1.13 µM
same,TGI,M19-MEL melanoma,2.46 µM and 2.91 µM
same,GI50,MALME-3M melanoma,2.51 µM
same,TGI,MALME-3M melanoma,9.8 µM
same,GI50,MCF7 breast,0.326 µM
same,TGI,MCF7 breast,1.35 µM and 3.79 µM
same,TGI,MOLT-4 leukemia,0.98 µM
same,GI50,NCI-H226 lung,1.78 µM
same,TGI,NCI-H226 lung,3.38 µM and 7.45 µM
same,GI50,NCI-H23 lung,2.41 µM
same,TGI,NCI-H23 lung,5.05 µM and 2.96 µM
same,GI50,NCI-H460 lung,1.8 µM
same,TGI,NCI-H460 lung,3.45 µM and 13 µM
same,TGI,NCI-H522 lung,2.94 µM
same,TGI,NCI/ADR-RES ovarian,2.87 µM
same,TGI,OVCAR-3 ovarian,3.48 µM and 3.25 µM
same,GI50,OVCAR-4 ovarian,1.69 µM
same,TGI,OVCAR-4 ovarian,3.12 µM and 3.31 µM
same,GI50,OVCAR-5 ovarian,3.95 µM
same,TGI,OVCAR-5 ovarian,11.8 µM and 3.54 µM
same,TGI,OVCAR-8 ovarian,2.96 µM and 2.85 µM
same,TGI,P388 leukemia,0.424 µM
same,TGI,P388/ADR leukemia,0.224 µM
same,TGI,RPMI-8226 leukemia,0.969 µM
same,GI50,RXF 393 renal,3.06 µM
same,TGI,RXF 393 renal,7.97 µM
same,GI50,SF-268 CNS,1.55 µM
same,TGI,SF-268 CNS,3 µM and 3.35 µM
same,GI50,SF-295 CNS,9.14 µM
same,TGI,SF-295 CNS,21.9 µM and 18.1 µM
same,GI50,SF-539 CNS,3.53 µM
same,TGI,SF-539 CNS,11.2 µM and 3.18 µM
same,GI50,SK-MEL-2 melanoma,1.5 µM
same,TGI,SK-MEL-2 melanoma,2.82 µM and 3.12 µM
same,TGI,SK-MEL-28 melanoma,3.24 µM and 3.32 µM
same,TGI,SK-MEL-5 melanoma,3.65 µM
same,TGI,SK-OV-3 ovarian,33.4 µM
same,TGI,SN12C renal,3.06 µM and 3.23 µM
same,GI50,SN12K1 renal,1.67 µM
same,TGI,SN12K1 renal,3.15 µM and 2.82 µM
same,GI50,SNB-19 CNS,4.79 µM
same,TGI,SNB-19 CNS,16.6 µM and 27.5 µM
same,GI50,SNB-75 CNS,3.69 µM
same,TGI,SNB-75 CNS,12 µM and 6.94 µM
same,GI50,SW-620 colon,0.878 µM
same,TGI,SW-620 colon,2.84 µM and 1.85 µM
same,GI50,U251 CNS,2.2 µM
same,TGI,U251 CNS,4.67 µM and 11.3 µM
same,GI50,UACC-257 melanoma,1.97 µM
same,TGI,UACC-257 melanoma,3.42 µM and 3.11 µM
same,GI50,UACC-62 melanoma,1.33 µM
same,TGI,UACC-62 melanoma,2.78 µM and 2.95 µM
same,GI50,UO-31 renal,1.63 µM
same,TGI,UO-31 renal,3 µM and 4.03 µM
same,TGI,XF 498 CNS,3.17 µM and 3.15 µM
CC(=O)C(CN(C(C)C)C(C)C)C(c1ccccc1)c1c(O)c2ccccc2oc1=O (stereo not drawn),TGI,786-0 renal,> 100 µM
same,TGI,A498 renal,> 100 µM
same,TGI,A549 NSCLC,> 100 µM
same,TGI,ACHN renal,> 100 µM
same,TGI,CAKI-1 renal,> 100 µM
same,TGI,CCRF-CEM leukemia,> 100 µM
same,TGI,COLO 205 colon,> 100 µM
same,TGI,DLD-1 colon,> 100 µM
same,TGI,DMS 114 small cell lung,> 100 µM
same,TGI,DMS 273 small cell lung,> 100 µM
same,TGI,EKVX NSCLC,> 100 µM
same,TGI,HCT-116 colon,> 100 µM
same,TGI,HCT-15 colon,> 100 µM
same,TGI,HL-60(TB) leukemia,> 100 µM
same,TGI,HOP-18 NSCLC,> 100 µM
same,TGI,HOP-62 NSCLC,> 100 µM
same,TGI,HT29 colon,> 100 µM
same,TGI,IGROV1 ovarian,> 100 µM
same,TGI,K-562 leukemia,> 100 µM
same,TGI,KM12 colon,> 100 µM
same,TGI,KM20L2 colon,> 100 µM
same,TGI,LOX IMVI melanoma,> 100 µM
same,TGI,LXFL 529 NSCLC,> 100 µM
same,TGI,M14 melanoma,> 100 µM
same,TGI,M19-MEL melanoma,> 100 µM
same,TGI,MALME-3M melanoma,> 100 µM
same,TGI,MOLT-4 leukemia,> 100 µM
same,TGI,NCI-H226 lung,> 100 µM
same,TGI,NCI-H23 lung,> 100 µM
same,TGI,NCI-H460 lung,> 100 µM
same,TGI,NCI-H522 lung,> 100 µM
same,TGI,OVCAR-3 ovarian,> 100 µM
same,TGI,OVCAR-4 ovarian,> 100 µM
same,TGI,OVCAR-5 ovarian,> 100 µM
same,TGI,OVCAR-8 ovarian,> 100 µM
same,TGI,RPMI-8226 leukemia,> 100 µM
same,TGI,RXF 393 renal,> 100 µM
same,TGI,RXF-631 renal,> 100 µM
same,TGI,SF-268 CNS,> 100 µM
same,TGI,SF-295 CNS,> 100 µM
same,TGI,SF-539 CNS,> 100 µM
same,TGI,SK-MEL-2 melanoma,> 100 µM
same,TGI,SK-MEL-28 melanoma,> 100 µM
same,TGI,SK-MEL-5 melanoma,> 100 µM
same,TGI,SK-OV-3 ovarian,> 100 µM
same,TGI,SN12C renal,> 100 µM
same,TGI,SNB-19 CNS,> 100 µM
same,TGI,SNB-75 CNS,> 100 µM
same,TGI,SNB-78 CNS,> 100 µM
same,TGI,SR leukemia,> 100 µM
same,TGI,SW-620 colon,> 100 µM
same,TGI,TK-10 renal,> 100 µM
same,TGI,U251 CNS,> 100 µM
same,TGI,UACC-257 melanoma,> 100 µM
same,TGI,UACC-62 melanoma,> 100 µM
same,TGI,UO-31 renal,> 100 µM
FC(F)(F)c1ccc(C2SCc3nc4ccccc4n32)cc1 (stereo not drawn),TGI,786-0 renal,> 100 µM
same,TGI,A498 renal,> 100 µM
same,TGI,A549 NSCLC,> 100 µM
same,TGI,ACHN renal,> 100 µM
same,TGI,CCRF-CEM leukemia,> 100 µM
same,TGI,COLO 205 colon,> 100 µM
same,TGI,DLD-1 colon,> 100 µM
same,TGI,DMS 114 small cell lung,> 100 µM
same,TGI,DMS 273 small cell lung,> 100 µM
same,TGI,EKVX NSCLC,> 100 µM
same,TGI,HCC-2998 colon,> 100 µM
same,TGI,HCT-116 colon,> 100 µM
same,TGI,HL-60(TB) leukemia,96.2 µM
same,TGI,HOP-18 NSCLC,> 100 µM
same,TGI,HOP-92 NSCLC,48.8 µM
same,TGI,HT29 colon,> 100 µM
same,TGI,IGROV1 ovarian,> 100 µM
same,TGI,K-562 leukemia,> 100 µM
same,TGI,KM12 colon,> 100 µM
same,TGI,LXFL 529 NSCLC,> 100 µM
same,TGI,M19-MEL melanoma,> 100 µM
same,TGI,MALME-3M melanoma,> 100 µM
same,TGI,MOLT-4 leukemia,> 100 µM
same,TGI,NCI-H226 lung,> 100 µM
same,TGI,NCI-H23 lung,> 100 µM
same,TGI,OVCAR-5 ovarian,> 100 µM
same,TGI,OVCAR-8 ovarian,> 100 µM
same,TGI,RPMI-8226 leukemia,> 100 µM
same,TGI,RXF 393 renal,> 100 µM
same,TGI,RXF-631 renal,> 100 µM
same,TGI,SF-268 CNS,> 100 µM
same,TGI,SF-295 CNS,> 100 µM
same,TGI,SF-539 CNS,> 100 µM
same,TGI,SK-MEL-2 melanoma,> 100 µM
same,TGI,SK-MEL-28 melanoma,> 100 µM
same,TGI,SK-MEL-5 melanoma,> 100 µM
same,TGI,SK-OV-3 ovarian,> 100 µM
same,TGI,SN12C renal,> 100 µM
same,TGI,SNB-19 CNS,> 100 µM
same,TGI,SNB-75 CNS,> 100 µM
same,TGI,SNB-78 CNS,> 100 µM
same,TGI,SR leukemia,> 100 µM
same,TGI,SW-620 colon,> 100 µM
same,TGI,TK-10 renal,> 100 µM
same,TGI,U251 CNS,> 100 µM
same,TGI,UACC-257 melanoma,> 100 µM
same,TGI,UACC-62 melanoma,> 100 µM
same,TGI,UO-31 renal,> 100 µM
